{
  "source": "patent US10993951B2",
  "about": "“Fosfomycin formulation for parenteral administration” (priority 2016, dated 2021)",
  "experiment_in_all_cases": "MIC by tube dilution in microtiter plates, stored fosfomycin solution",
  "assay_type_in_all_cases": "cell-based",
  "settings_in_all_cases": "read-out: minimal inhibitory concentration (MIC)",
  "key": {"[1]": {"tested_on": "Staphylococcus aureus ATTC 33592"}, "[2]": {"tested_on": "Staphylococcus hominis AG 1115"}, "[3]": {"tested_on": "Escherichia coli AG 1215"}, "[4]": {"tested_on": "Staphylococcus aureus ATTC 33592", "description": "(§1) The objective of the present investigation was to find out whether the antimicrobial activity of fosfomycin with a pH suitable for intravenous administration is maintained in a solvent suitable for intravenous use. For this, fosfomycin disodium (14.5 mmol sodium/g) and succinic acid were used to adjust the pH (0.025 grams of succinic acid per gram of fosfomycin).\n(§2) A stock solution of 4 g of fosfomycin disodium and succinic acid (0.025 grams of succinic acid per gram of fosfomycin, corresponding to about 3 g of fosfomycin) in 10 ml distilled water was prepared and divided into 5 cryotubes at 2 ml each, and the solution was exposed at different temperatures as follows:\n(§3) Aliquots of 2 ml of the sample were stored at −80° C., at refrigerator temperature (2-8° C.), at room temperature (20-25° C.), and at 45-65° C. until the test end. Another 2 ml of the stock solution were stored at refrigerator temperature (2-8° C.) and autoclaved before the tests at 125° C. for 30 minutes. After that, all samples were tested for their antimicrobioal activity.\n(§4) To determine the antimicrobial activity of fosfomycin, the minimal inhibitory concentration (MIC) of the 4 mentioned bacteria strains was determined by a tube dilution method in microtiter plates using Mueller-Hinton broth. For the inoculation of the microtiter plates, the inoculum was adjusted to 1.5×104 germs/ml. The evaluation was made after 24 hours of incubation at 37° C.\n(§5) Samples were taken, starting with 2,000 μg/ml test substance, diluted by a factor 2. Serial dilutions of 2,000 μg/ml to […] were prepared.", "remark": "listed apart in the source"}, "[5]": {"tested_on": "Staphylococcus hominis AG 1115", "description": "as §1, §2, §3, §4, §5", "remark": "listed apart in the source"}},
  "note": "Read-outs that look alike come from different tables or passages of the source.",
  "data": [
    {"smiles": "C[C@@H]1O[C@@H]1P(=O)(O)O", "note": "[Fosfomycin, fosfomycin]", "values": [
      {"measurement": "MIC", "setting": "[1]; ATTC33592, 0 h, storage temp. 4-8 °C, storage period 0 days", "value": 15.6, "unit": "µg/mL"},
      {"measurement": "MIC", "setting": "[1]; ATTC33592, 456 h, storage temp. 4-8 °C, storage period 19 days", "value": 7.8, "unit": "µg/mL"},
      {"measurement": "MIC", "setting": "[1]; ATTC33592, storage temp. 4-8 °C, storage period 31 days", "value": 3.9, "unit": "µg/mL"},
      {"measurement": "MIC", "setting": "[2]; AG1115, 648 h, storage temp. 4-8 °C, storage period 27 days", "value": 15.6, "unit": "µg/mL"},
      {"measurement": "MIC", "setting": "[2]; AG1115, storage temp. 4-8 °C, storage period 64 days", "value": 15.6, "unit": "µg/mL"},
      {"measurement": "MIC", "setting": "[2]; AG1115, storage temp. 4-8 °C, storage period 92 days", "value": 15.6, "unit": "µg/mL"},
      {"measurement": "MIC", "setting": "[3]; AG1215, 648 h, storage temp. 4-8 °C, storage period 27 days", "value": 62.5, "unit": "µg/mL"},
      {"measurement": "MIC", "setting": "[3]; AG1215, storage temp. 4-8 °C, storage period 59 days", "value": 62.5, "unit": "µg/mL"},
      {"measurement": "MIC", "setting": "[3]; AG1215, storage temp. 4-8 °C, storage period 64 days", "value": 15.6, "unit": "µg/mL"},
      {"measurement": "MIC", "setting": "[4]; ATTC33592, 0 h, storage temp. 20-25 °C, storage period 0 days", "value": 7.8, "unit": "µg/mL"},
      {"measurement": "MIC", "setting": "[4]; ATTC33592, 0 h, storage temp. 45-65 °C, storage period 0 days", "value": 15.6, "unit": "µg/mL"},
      {"measurement": "MIC", "setting": "[4]; ATTC33592, 0 h, storage temp. −80 °C, storage period 0 days", "value": 15.6, "unit": "µg/mL"},
      {"measurement": "MIC", "setting": "[4]; ATTC33592, 125 °C (refrigerator storage, autoclaved 30 minutes before tests), storage period 0 days", "value": 15.6, "unit": "µg/mL"},
      {"measurement": "MIC", "setting": "[4]; ATTC33592, 125 °C (refrigerator storage, autoclaved 30 minutes before tests), storage period 19 days", "value": 31.2, "unit": "µg/mL"},
      {"measurement": "MIC", "setting": "[4]; ATTC33592, 125 °C (refrigerator storage, autoclaved 30 minutes before tests), storage period 31 days", "value": 7.8, "unit": "µg/mL"},
      {"measurement": "MIC", "setting": "[4]; ATTC33592, 456 h, storage temp. 20-25 °C, storage period 19 days", "value": 15.6, "unit": "µg/mL"},
      {"measurement": "MIC", "setting": "[4]; ATTC33592, 456 h, storage temp. 45-65 °C, storage period 19 days", "value": 31.2, "unit": "µg/mL"},
      {"measurement": "MIC", "setting": "[4]; ATTC33592, 456 h, storage temp. −80 °C, storage period 19 days", "value": 7.8, "unit": "µg/mL"},
      {"measurement": "MIC", "setting": "[4]; ATTC33592, storage temp. 20-25 °C, storage period 31 days", "value": 7.8, "unit": "µg/mL"},
      {"measurement": "MIC", "setting": "[4]; ATTC33592, storage temp. 45-65 °C, storage period 31 days", "value": 7.8, "unit": "µg/mL"},
      {"measurement": "MIC", "setting": "[4]; ATTC33592, storage temp. −80 °C, storage period 31 days", "value": 7.8, "unit": "µg/mL"},
      {"measurement": "MIC", "setting": "[5]; AG1115, 125 °C (refrigerator storage, autoclaved 30 minutes before tests), storage period 27 days", "value": 15.6, "unit": "µg/mL"},
      {"measurement": "MIC", "setting": "[5]; AG1115, 125 °C (refrigerator storage, autoclaved 30 minutes before tests), storage period 31 days", "value": 7.8, "unit": "µg/mL"},
      {"measurement": "MIC", "setting": "[5]; AG1115, 125 °C (refrigerator storage, autoclaved 30 minutes before tests), storage period 54 days", "value": 7.8, "unit": "µg/mL"},
      {"measurement": "MIC", "setting": "[5]; AG1115, 125 °C (refrigerator storage, autoclaved 30 minutes before tests), storage period 59 days", "value": 15.6, "unit": "µg/mL"},
      {"measurement": "MIC", "setting": "[5]; AG1115, 125 °C (refrigerator storage, autoclaved 30 minutes before tests), storage period 64 days", "value": 31.2, "unit": "µg/mL"},
      {"measurement": "MIC", "setting": "[5]; AG1115, 125 °C (refrigerator storage, autoclaved 30 minutes before tests), storage period 92 days", "value": 31.2, "unit": "µg/mL"},
      {"measurement": "MIC", "setting": "[5]; AG1115, 648 h, storage temp. 20-25 °C, storage period 27 days", "value": 31.2, "unit": "µg/mL"},
      {"measurement": "MIC", "setting": "[5]; AG1115, 648 h, storage temp. 45-65 °C, storage period 27 days", "value": 15.6, "unit": "µg/mL"},
      {"measurement": "MIC", "setting": "[5]; AG1115, 648 h, storage temp. −80 °C, storage period 27 days", "value": 7.8, "unit": "µg/mL"},
      {"measurement": "MIC", "setting": "[5]; AG1115, storage temp. 4-8 °C, storage period 31 days", "value": 7.8, "unit": "µg/mL"},
      {"measurement": "MIC", "setting": "[5]; AG1115, storage temp. 4-8 °C, storage period 54 days", "value": 7.8, "unit": "µg/mL"},
      {"measurement": "MIC", "setting": "[5]; AG1115, storage temp. 4-8 °C, storage period 59 days", "value": 15.6, "unit": "µg/mL"},
      {"measurement": "MIC", "setting": "[5]; AG1115, storage temp. 20-25 °C, storage period 31 days", "value": 7.8, "unit": "µg/mL"},
      {"measurement": "MIC", "setting": "[5]; AG1115, storage temp. 20-25 °C, storage period 54 days", "value": 15.6, "unit": "µg/mL"},
      {"measurement": "MIC", "setting": "[5]; AG1115, storage temp. 20-25 °C, storage period 59 days", "value": 7.8, "unit": "µg/mL"},
      {"measurement": "MIC", "setting": "[5]; AG1115, storage temp. 20-25 °C, storage period 64 days", "value": 31.2, "unit": "µg/mL"},
      {"measurement": "MIC", "setting": "[5]; AG1115, storage temp. 20-25 °C, storage period 92 days", "value": 62.5, "unit": "µg/mL"},
      {"measurement": "MIC", "setting": "[5]; AG1115, storage temp. 45-65 °C, storage period 31 days", "value": 3.9, "unit": "µg/mL"},
      {"measurement": "MIC", "setting": "[5]; AG1115, storage temp. 45-65 °C, storage period 54 days", "value": 15.6, "unit": "µg/mL"},
      {"measurement": "MIC", "setting": "[5]; AG1115, storage temp. 45-65 °C, storage period 59 days", "value": 15.6, "unit": "µg/mL"},
      {"measurement": "MIC", "setting": "[5]; AG1115, storage temp. 45-65 °C, storage period 64 days", "value": 15.6, "unit": "µg/mL"},
      {"measurement": "MIC", "setting": "[5]; AG1115, storage temp. 45-65 °C, storage period 92 days", "value": 62.5, "unit": "µg/mL"},
      {"measurement": "MIC", "setting": "[5]; AG1115, storage temp. −80 °C, storage period 31 days", "value": 7.8, "unit": "µg/mL"},
      {"measurement": "MIC", "setting": "[5]; AG1115, storage temp. −80 °C, storage period 54 days", "value": 7.8, "unit": "µg/mL"}
    ]}
  ]
}
